Source: the NIST ThermoML archive (doi:10.1021/je900596d)

Conditions: for vapor or sublimation pressure: Liquid, Closed cell (Static) method; for mass density: 263.41 K, Fluid (supercritical or subcritical phases), Vibrating tube method

FC(F)=C(F)C(F)(F)F [hexafluoropropene]
Conditions	mass density [kg/m3]	vapor or sublimation pressure [kPa]
1.9 kPa	0.11	–
2.4 kPa	0.12	–
2.9 kPa	0.15	–
3.5 kPa	0.21	–
4.3 kPa	0.25	–
5 kPa	0.26	–
5.7 kPa	0.35	–
6.3 kPa	0.39	–
7.1 kPa	0.47	–
7.8 kPa	0.48	–
8.5 kPa	0.55	–
9.3 kPa	0.61	–
10 kPa	0.66	–
10.7 kPa	0.71	–
11.4 kPa	0.79	–
12.1 kPa	0.8	–
12.9 kPa	0.87	–
13.6 kPa	0.9	–
14.4 kPa	0.96	–
15 kPa	1	–
15.8 kPa	1.02	–
16.5 kPa	1.08	–
17.1 kPa	1.17	–
17.9 kPa	1.18	–
18.6 kPa	1.25	–
20 kPa	1.33	–
21.5 kPa	1.4	–
22.9 kPa	1.53	–
24.3 kPa	1.63	–
25.8 kPa	1.75	–
27.2 kPa	1.83	–
28.6 kPa	1.89	–
30 kPa	2.05	–
31.4 kPa	2.13	–
32.8 kPa	2.25	–
34.2 kPa	2.33	–
35.5 kPa	2.43	–
36.3 kPa	2.5	–
37.7 kPa	2.61	–
39 kPa	2.7	–
40.5 kPa	2.77	–
41.9 kPa	2.87	–
43.2 kPa	2.95	–
44.5 kPa	3.08	–
45.3 kPa	3.09	–
46.6 kPa	3.21	–
48 kPa	3.31	–
49.4 kPa	3.4	–
50.7 kPa	3.48	–
52.1 kPa	3.59	–
53.4 kPa	3.66	–
54.7 kPa	3.8	–
56.1 kPa	3.85	–
57.5 kPa	3.97	–
58.8 kPa	4.06	–
60.1 kPa	4.18	–
61.4 kPa	4.28	–
62.8 kPa	4.33	–
64 kPa	4.44	–
65.4 kPa	4.56	–
66.7 kPa	4.62	–
68 kPa	4.73	–
69.3 kPa	4.82	–
70.5 kPa	4.89	–
71.3 kPa	4.97	–
72.5 kPa	5.04	–
73.9 kPa	5.17	–
75.2 kPa	5.2	–
76.4 kPa	5.28	–
77.7 kPa	5.44	–
79 kPa	5.49	–
80.3 kPa	5.61	–
81.6 kPa	5.72	–
82.7 kPa	5.81	–
83.5 kPa	5.85	–
84.7 kPa	5.95	–
86 kPa	6	–
87.2 kPa	6.11	–
88.4 kPa	6.26	–
89.8 kPa	6.31	–
91 kPa	6.41	–
92.3 kPa	6.52	–
93.5 kPa	6.56	–
94.6 kPa	6.62	–
96 kPa	6.75	–
97.3 kPa	6.84	–
98.5 kPa	6.94	–
99.7 kPa	7.02	–
100.4 kPa	7.07	–
101.6 kPa	7.14	–
102.8 kPa	7.21	–
104.5 kPa	7.41	–
105.8 kPa	7.51	–
107 kPa	7.55	–
108.2 kPa	7.68	–
109.5 kPa	7.75	–
110.7 kPa	7.85	–
112.4 kPa	7.99	–
114.2 kPa	8.06	–
115.5 kPa	8.22	–
116.7 kPa	8.3	–
117.9 kPa	8.33	–
119.6 kPa	8.49	–
120.8 kPa	8.59	–
122 kPa	8.7	–
123.2 kPa	8.78	–
124.4 kPa	8.88	–
126 kPa	8.99	–
127.2 kPa	9.05	–
128.4 kPa	9.16	–
130.2 kPa	9.28	–
131.8 kPa	9.44	–
133 kPa	9.5	–
134.7 kPa	9.61	–
136.4 kPa	9.79	–
138.1 kPa	9.87	–
139.8 kPa	10.02	–
141.5 kPa	10.14	–
143.2 kPa	10.31	–
144.8 kPa	10.44	–
146.5 kPa	10.54	–
148.1 kPa	10.66	–
149.8 kPa	10.8	–
151.4 kPa	10.89	–
153 kPa	11.03	–
154.7 kPa	11.17	–
156.3 kPa	11.29	–
157.9 kPa	11.41	–
159.6 kPa	11.53	–
161.2 kPa	11.7	–
253.26 K	–	149.7
258.26 K	–	184.1
263.16 K	–	224.5
